The results in this text go back to paper PMC6412019, “Discovery of NV-5138, the first selective Brain mTORC1 activator” (Scientific Reports, 2019).

“Also recorded” adds a separate entry of the source.

One test addresses T1, Sestrin2 (Homo sapiens, UniProt P58004).
T1 sequence (P58004 1-480): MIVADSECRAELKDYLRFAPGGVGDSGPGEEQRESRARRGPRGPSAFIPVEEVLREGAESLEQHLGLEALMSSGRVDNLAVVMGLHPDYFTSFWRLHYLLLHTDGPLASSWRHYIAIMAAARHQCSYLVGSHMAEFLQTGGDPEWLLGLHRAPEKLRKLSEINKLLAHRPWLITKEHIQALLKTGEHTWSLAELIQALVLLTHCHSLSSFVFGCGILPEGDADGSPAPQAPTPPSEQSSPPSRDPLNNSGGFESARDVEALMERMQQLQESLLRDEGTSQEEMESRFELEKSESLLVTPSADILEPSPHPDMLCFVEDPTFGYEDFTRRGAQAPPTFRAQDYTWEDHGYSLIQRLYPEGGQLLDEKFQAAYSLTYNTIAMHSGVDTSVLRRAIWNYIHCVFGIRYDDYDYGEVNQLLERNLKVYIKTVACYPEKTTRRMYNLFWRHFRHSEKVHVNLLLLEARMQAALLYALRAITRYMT
Kind of test: Cellular thermal shift assay (CETSA), intracellular Sestrin2 in HEK-293T cells. The test is classed as cell-based. The note with it: 30 min, leucine-starved HEK293T cells, read-out: increase of melting temperature of intracellular Sestrin2. The procedure: (§1) Expression of flag-WDR24 allows for immunoprecipitation of the Sestrin2/GATOR2 complex from amino acid-starved cells with an anti-flag antibody. […] Finally, to determine whether Sestrins and the GATOR pathway are required for NV-5138 activity, HEK-293T cells null for all three Sestrin isoforms or the GATOR1 component Nprl3 were obtained.
(§2) CETSA was performed as previously described. […] Cells were then collected, centrifuged for 3 min at 300 g at room-temperature (RT), washed with PBS, centrifuged again, and finally resuspended in 1 ml of RT PBS containing EDTA-free protease-inhibitor tablets (Roche). 100 µl of each cell suspension was heated at the noted temperature for 3 min, samples were then placed on the bench at RT for 3 min before being flash-frozen in liquid nitrogen. To lyse the cells, samples were put through two cycles of freeze-thawing followed by centrifugation at 20,000 g for 20 min at 4 °C. 80 µl of the resulting supernatant was denatured and, resolved by SDS-PAGE. Membranes were imaged using the LI-COR imaging system. Antibodies used are listed in Supplementary Information.

The target in another test is T2, Sestrin1 (Homo sapiens, UniProt Q9Y6P5).
T2 sequence (Q9Y6P5 67-492 limits assumed): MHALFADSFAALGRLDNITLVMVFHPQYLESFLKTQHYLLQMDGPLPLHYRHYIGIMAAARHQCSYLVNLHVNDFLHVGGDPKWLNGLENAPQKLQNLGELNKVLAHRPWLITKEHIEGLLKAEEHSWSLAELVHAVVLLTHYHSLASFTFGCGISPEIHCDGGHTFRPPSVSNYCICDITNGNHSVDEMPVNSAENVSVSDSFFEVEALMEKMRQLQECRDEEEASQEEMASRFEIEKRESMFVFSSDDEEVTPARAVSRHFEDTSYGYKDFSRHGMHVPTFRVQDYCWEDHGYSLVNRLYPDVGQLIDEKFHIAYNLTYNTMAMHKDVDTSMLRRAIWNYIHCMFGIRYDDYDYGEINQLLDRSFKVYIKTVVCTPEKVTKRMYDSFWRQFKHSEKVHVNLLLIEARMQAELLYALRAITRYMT
Kind of test: Cellular thermal shift assay (CETSA), intracellular Sestrin1 in HEK-293T cells. The following applies: 30 min, leucine-starved HEK293T cells, read-out: increase of melting temperature of intracellular Sestrin1. It is filed as cell-based. As for the experimental part:
as §1, §2

The target in another test is T3, Sestrin3 (Homo sapiens, UniProt P58005).
T3 construct: endogenous in cells; host or cells: HEK-293T
T3 sequence (P58005 1-492): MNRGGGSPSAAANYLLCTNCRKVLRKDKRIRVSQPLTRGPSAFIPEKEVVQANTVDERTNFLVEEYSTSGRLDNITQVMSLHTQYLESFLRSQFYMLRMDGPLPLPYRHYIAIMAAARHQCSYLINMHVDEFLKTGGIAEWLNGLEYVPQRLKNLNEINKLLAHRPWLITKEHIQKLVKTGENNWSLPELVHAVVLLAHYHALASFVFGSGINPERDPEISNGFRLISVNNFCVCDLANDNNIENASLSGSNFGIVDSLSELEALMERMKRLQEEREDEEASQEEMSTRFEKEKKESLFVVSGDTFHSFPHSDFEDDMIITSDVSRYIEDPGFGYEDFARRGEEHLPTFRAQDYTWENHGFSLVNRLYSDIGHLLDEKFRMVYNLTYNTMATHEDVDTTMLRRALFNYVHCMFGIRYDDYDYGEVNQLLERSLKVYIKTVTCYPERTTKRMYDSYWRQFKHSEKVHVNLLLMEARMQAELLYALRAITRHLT
The test is described as follows: Cellular thermal shift assay (CETSA), intracellular Sestrin3 in HEK-293T cells. It is filed as cell-based. The following applies: 300 µM, 30 min, leucine-starved HEK293T cells. As for the experimental part: as §1, §2

For a further test, the system named is HeLa cells. The test is described as follows: 14C-leucine protein incorporation assay in HeLa cells. It is filed as cell-based, human. The following applies: for effect on incorporation of 14C-leucine into precipitated proteins: 30 min labeling, CHX 10 ug/ml. As for the experimental part:
Since NV-5138 is an amino acid, we performed two different experiments to rule out any potential liabilities that could arise from the incorporation of NV-5138 into proteins. We first determined whether NV-5138 substitutes for any branched-chain amino acid or methionine into newly synthesized proteins using liquid chromatography followed by tandem mass spectroscopy (LC-MS/MS). NV-5138 (100 µM) or vehicle was incubated with serum and leucine-starved 293T cells for 6 hours followed by proteomic analysis by mass spectrometry.
After incubation, cells were harvested and lysed in Tris/HCl 10 mM pH 7.4 plus 1% NP40. Lysate were mixed with water and 20% trichloroacetic acid (1:1:2) and incubated on ice for 2 h to precipitate the protein. Proteins were collected by centrifugation, solubilized in NaOH, placed in scintillation fluid and read on a Wallac Microbeta Trilux 2450 with a 2-min count. Scintillation values were normalized as the percentage of the counts from the DMSO-treated wells.

In another test the test system is mTORC1. Kind of test: mTORC1 activation in rat brain after oral dosing (phosphorylated S6 S240/244 immunoblot). The test is classed as in vivo. The following applies: for mTORC1 activation in brain (pS6 increase): 1 h after single oral dose, NV-5138 160 mg/kg, leucine 500 mg/kg; for increase in S240/244 pS6 versus vehicle: synaptoneurosomes from pre-frontal cortex. The text has this:
Given the favorable PK properties of NV-5138, we wished to determine whether oral administration of NV-5138 could activate mTORC1 in the brain and other organs of ad libitum fed rats using the mTORC1 downstream substrate phosphorylated S6 (^S240/244pS6) as a surrogate PD parameter for the activation status of the complex.
After compound administration, animals were sacrificed by decapitation using a guillotine, immediately Specific regions of the brain were quickly microdissected, tissues collected, and flash frozen in liquid nitrogen. Peripheral tissues and all brain were homogenized using MP homogenizer in Lysis Buffer (Cell lysis buffer: 1% Triton X-100, 50 mM HEPES pH 7.4, 100 mM NaCl, 2 mM EDTA, 10 mM Beta-glycerophosphate, 10 mM Sodium pyrophosphate, and 1 protease inhibitor) at 4 °C. Synaptic proteins and mTORC1 analyses in each brain region were conducted on crude synaptoneurosome preparations as previously described. Equal amounts of total protein from each sample were denatured and, resolved by SDS-PAGE. Membranes were imaged using the LI-COR imaging system. Proteins levels are normalized to tubulin or GAPDH levels and further normalized to vehicle treated rats for each tissue. Antibodies used are listed in Supplementary Information.

Setting [1] is: 160 mg/kg PO, 1 h, synaptoneurosomes.

In the case of `CC(C)(C[C@H](N)C(=O)O)C(F)F` [NV-5138, (S)-2-amino-5,5-difluoro-4,4-dimethylpentanoic acid], the ΔTm at 300 µM on Sestrin2 is approximately 2 °C. Also, the ΔTm at 300 µM on Sestrin1 is approximately 2 °C. Besides, on Sestrin3, the “change of melting temperature of intracellular Sestrin3” value is given as “neither NV-5138 nor leucine changed the melting temperature; also recorded: does not impact the melting temperature”. In the test with HeLa cells, the “effect on incorporation of 14C-leucine into precipitated proteins” value is given as “did not show any competition”. Moreover, the “effect on 14C-leucine incorporation at high doses” value in the test with HeLa cells (high doses) is listed as “appeared to increase”. In addition, in the test with mTORC1 (setting [1]), the “mTORC1 activation in cerebellum” value is listed as “but not the cerebellum” and the “mTORC1 activation in striatum, hippocampus, neocortex” value is reported as “significant activation”. Moreover, in the test on mTORC1 (ad libitum fed rats), the “mTORC1 activation in brain (pS6 increase)” value is recorded as ~ 2 fold. For the same compound, in the test with mTORC1 (single 160 mg/kg PO), the “time of peak mTORC1 activation in brain” value is reported as ~ 3 h and the “time until mTORC1 activation back to baseline/vehicle levels” value is not above 7 h. Further, the “increase in S240/244 pS6 versus vehicle” value in the test with mTORC1 (1 h after 80 mg/kg PO) is on record as “trending increase”. Moreover, the “increase in S240/244 pS6 versus vehicle” value with mTORC1 (1 h after 160 mg/kg PO, ad libitum fed rats) was ~ 2 fold.

For the compound `CC(C)C[C@H](N)C(=O)O` [Leucine, L-leucine, reference compound], the ΔTm at 300 µM on Sestrin2 and at Sestrin1 was approximately 2 °C throughout. Besides, at Sestrin3, the “change of melting temperature of intracellular Sestrin3” value is listed as “neither NV-5138 nor leucine changed the melting temperature”. For the same compound, the “effect on incorporation of 14C-leucine into precipitated proteins” value with HeLa cells is listed as “blocked incorporation”. Further, in the test with mTORC1 (ad libitum fed rats), the “mTORC1 activation in brain (pS6 increase)” value was “no activation”.
